From patent US6737383B1, “Herbicidal oxadiazolidines” (priority 1999, dated 2004)

Experiments:
bedstraw = experiment: Test B pre/postemergence bedstraw; type: in vivo, Galium aparine; details: Preemergence
In short: (§1)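 Herbicidal effect was estimated by eye on a ten-point control scale after plants spent twelve to sixteen days in a greenhouse following soil or foliar treatment. Foliar sprays targeted plants at one to four leaves; all doses were formulated in a non-phytotoxic solvent with surfactant.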

blackgrass = experiment: Test B pre/postemergence blackgrass; type: in vivo, Alopecurus myosuroides; details: Preemergence
In short: as §1

surinam grass = experiment: Test B pre/postemergence surinam grass; type: in vivo, Brachiaria decumbens; details: Preemergence
In short: as §1

cocklebur = experiment: Test B pre/postemergence cocklebur; type: in vivo, Xanthium strumarium; details: Preemergence
In short: as §1

corn = experiment: Test B pre/postemergence corn; type: in vivo, Zea mays; details: Preemergence
In short: as §1

crabgrass = experiment: Test B pre/postemergence crabgrass; type: in vivo, Digitaria sanguinalis; details: Preemergence
In short: as §1

giant foxtail = experiment: Test B pre/postemergence giant foxtail; type: in vivo, Setaria faberii; details: Preemergence
In short: as §1

morningglory = experiment: Test B pre/postemergence morningglory; type: in vivo, Ipomoea hederacea; details: Preemergence
In short: as §1

pigweed = experiment: Test B pre/postemergence pigweed; type: in vivo, Amaranthus retroflexus; details: Preemergence
In short: as §1

rape = experiment: Test B pre/postemergence rape; type: in vivo, Brassica napus; details: Preemergence
In short: as §1

soybean = experiment: Test B pre/postemergence soybean; type: in vivo, Glycine max; details: Preemergence
In short: as §1

sugar beet = experiment: Test B pre/postemergence sugar beet; type: in vivo, Beta vulgaris; details: Preemergence
In short: as §1

velvetleaf = experiment: Test B pre/postemergence velvetleaf; type: in vivo, Abutilon theophrasti; details: Preemergence
In short: as §1

wheat = experiment: Test B pre/postemergence wheat; type: in vivo, Triticum aestivum; details: Preemergence
In short: as §1

wild oat = experiment: Test B pre/postemergence wild oat; type: in vivo, Avena fatua; details: Preemergence
In short: as §1

purple nutsedge = experiment: Test B pre/postemergence purple nutsedge; type: in vivo, Cyperus rotundus; details: Preemergence, scale of 0 to 10 where 0 is no effect and 10 is complete control
In short: as §1

[1] = Rate 31 g/ha, visual rating, scale 0 to 10 (0 no effect, 10 complete control)
[2] = Rate 62 g/ha, scale of 0 to 10 where 0 is no effect and 10 is complete control
[3] = Rate 125 g/ha, scale of 0 to 10 where 0 is no effect and 10 is complete control
[4] = Rate 250 g/ha, scale 0 (no effect) to 10 (complete control)

CC(C)N(C(=O)n1oc(=O)n(Cc2nnc(-c3ccccc3)o2)c1=O)c1ccccc1 [Compound 716]
0: Bedstraw plant response rating (bedstraw; [1]) | Bedstraw plant response rating (bedstraw; [2]) | Plant response rating, Bedstraw (bedstraw; [3]) | Bedstraw plant response rating (bedstraw; [4]) | Blackgrass plant response rating (blackgrass; [1]) | Blackgrass plant response rating (blackgrass; [2]) | Plant response rating, Blackgrass (blackgrass; [3]) | Blackgrass plant response rating (blackgrass; [4]) | B. signalgrass plant response rating (surinam grass; [1]) | B. signalgrass plant response rating (surinam grass; [2]) | Plant response rating, B. signalgrass (surinam grass; [3]) | B. signalgrass plant response rating (surinam grass; [4]) | Cocklebur plant response rating (cocklebur; [1]) | Cocklebur plant response rating (cocklebur; [2]) | Plant response rating, Cocklebur (cocklebur; [3]) | Cocklebur plant response rating (cocklebur; [4]) | Corn plant response rating (corn; [1]) | Corn plant response rating (corn; [2]) | Plant response rating, Corn (corn; [3]) | Corn plant response rating (corn; [4]) | Crabgrass plant response rating (crabgrass; [1]) | Crabgrass plant response rating (crabgrass; [2]) | Plant response rating, Crabgrass (crabgrass; [3]) | Crabgrass plant response rating (crabgrass; [4]) | Giant foxtail plant response rating (giant foxtail; [1]) | Giant foxtail plant response rating (giant foxtail; [2]) | Plant response rating, Giant foxtail (giant foxtail; [3]) | Giant foxtail plant response rating (giant foxtail; [4]) | Morningglory plant response rating (morningglory; [2]) | Plant response rating, Morningglory (morningglory; [3]) | Morningglory plant response rating (morningglory; [4]) | Redroot pigweed plant response rating (pigweed; [2]) | Plant response rating, Redroot pigweed (pigweed; [3]) | Redroot pigweed plant response rating (pigweed; [4]) | Rape plant response rating (rape; [2]) | Plant response rating, Rape (rape; [3]) | Rape plant response rating (rape; [4]) | Soybean plant response rating (soybean; [2]) | Plant response rating, Soybean (soybean; [3]) | Soybean plant response rating (soybean; [4]) | Sugarbeets plant response rating (sugar beet; [2]) | Plant response rating, Sugarbeets (sugar beet; [3]) | Sugarbeets plant response rating (sugar beet; [4]) | Velvetleaf plant response rating (velvetleaf; [2]) | Plant response rating, Velvetleaf (velvetleaf; [3]) | Velvetleaf plant response rating (velvetleaf; [4]) | Wheat plant response rating (wheat; [2]) | Plant response rating, Wheat (wheat; [3]) | Wheat plant response rating (wheat; [4]) | Wild oats plant response rating (wild oat; [2]) | Plant response rating, Wild oats (wild oat; [3]) | Wild oats plant response rating (wild oat; [4]) | Nutsedge plant response rating (purple nutsedge; Rate 62 g/ha) | Plant response rating, Nutsedge (purple nutsedge; Rate 125 g/ha)
